From the NIST ThermoML archive (doi:10.1016/j.jct.2006.09.010)
± gives the expanded uncertainty stated by the source.

Settings: Liquid

## FC(F)C(F)(F)F [pentafluoroethane]
313.15 K
  vapor or sublimation pressure: 2008 ± 38 kPa
323.15 K
  vapor or sublimation pressure: 2535 ± 48 kPa
333.15 K
  vapor or sublimation pressure: 3171 ± 59 kPa
